Experiment [1] has as its system IL-2. The experiment can be described thus: Inhibition of IL-2 production in phytohemagglutinin-activated human PBMCs (sandwich ELISA). The format is cell-based. The note with it: approximately 46 hours; for IC50: PBMC, read-out: IL-2 pIC50 (converted). Here is the method: Peripheral blood mononuclear cells (PBMCs) were isolated from human blood. The lymphocytes, a fraction of the PBMCs, were activated to secrete IL-2 using the polyclonal mitogen phytohemagglutinin. The test compounds were added in concentrations from 10^−5 to 10^−10, and the cells (10^6/ml) were incubated in microtiter wells at 37° C. for approximately 46 hours.
After 46 hours the cells were centrifuged down for 25 minutes at 1000×g and the supernatants were transferred to transferred to microtiter wells precoated with a monoclonal antibody against human IL-2. The IL-2 concentration in the supernatants was determined by a sandwich ELISA. Microtiter plates were coated (1 μg/ml) with a monoclonal antibody (R&D, UK) against human IL-2, washed 4 times, blocked with 1% casein buffer for 2 hours and washed 2 times. 100 μl sample was added to each well and incubated overnight. All samples were tested in triplicate. 100 μl IL-2 standards (R&D, UK) at a concentration range of 10000-0 pg/ml were tested in triplicate. After incubation the plates were washed and incubated with biotinylated polyclonal secondary antibody against human IL-2 (R&D, UK) for 45 minutes and thereafter washed 4 times. 100 μl enzyme conjugate, horseradish peroxidase conjugated streptavidin diluted 1:4000 (Zymed, USA), was added to all wells and incubated for 30 minutes. 100 μl OPD substrate (KEM EN TEC-DK) was added and the enzyme/substrate reaction stopped after 10 minutes at room temperature with 50 μl 1 M H2SO4. The colour development (optical density—OD) was determined at 492 nm on an ELISA reader and the background OD at 620 nm subtracted).

In experiment [2] the test system is EAE induced in SJL/J mice with a peptide from myelin proteolipid protein (PLP139-153). The experiment can be described thus: EAE model in SJL/J mice immunized with PLP139-153 peptide. In kind it is in vivo, mouse.
Where [3] appears, read: Table 4, 50 mg/kg daily, treatment as in example 4.

Read-outs that look alike come from different tables or passages of the source.

With `O=C1Nc2ccccc2/C1=C/c1c[nH]c2ccccc12`, the IC50 in experiment [1] (Homo sapiens, 46 h) was 1 nM. Same read-out and setting: as for `O=CN1CCN(c2ccc(/C=C3\C(=O)Nc4ccccc43)cc2)CC1`, the figure is 316 nM. For the compound `Cc1cc(C)c(/C=C2\C(=O)Nc3ccccc32)[nH]1`, in experiment [1], the IC50 was 0.2 nM. On to `O=C1Nc2ccccc2/C1=C/c1ccc2ccccc2c1`, for which the IC50 in experiment [1] (Homo sapiens, 46 h) was 631 nM. Still for that read-out and setting: then `O=C1Nc2ccccc2/C1=C/c1cccc([N+](=O)[O-])c1`, with 20 nM; and `O=C1Nc2ccccc2/C1=C/c1ccccc1F`, with 63.1 nM. The same measure, in the same setting: then `Cc1cccc(/C=C2\C(=O)Nc3ccccc32)c1`, with 631 nM; and `O=C1Nc2ccccc2/C1=C\c1cccc(F)c1`, with 200 nM; and `O=C1Nc2ccccc2/C1=C/c1cc(Br)ccc1O`, with 20 nM.

As to `COc1ccc(OC)c(/C=C2\C(=O)Nc3ccc(Cl)cc32)c1`, in experiment [1] (Homo sapiens, 46 h), the IC50 was 20 nM.

With `O=C1Nc2ccc(Cl)cc2/C1=C/c1ccccc1O`, the IC50 in experiment [1] (Homo sapiens, 46 h) was 100 nM. The same measure, in the same setting: then `COc1ccc(/C=C2\C(=O)Nc3ccc(Cl)cc32)cc1`, with 10 nM. The same measure, in the same setting: then `Cc1[nH]c(/C=C2\C(=O)Nc3ccccc32)c(C)c1CCC(=O)O`, with 50.1 nM; and `Cc1cc(C)c(/C=C2\C(=O)Nc3cccc(C)c32)[nH]1`, with 39.8 nM.

`COc1cc[nH]c1/C=C1\C(=O)Nc2ccc(Cl)cc21`: the IC50 in experiment [1] (Homo sapiens, 46 h) was 50.1 nM. `COc1cc[nH]c1/C=C1\C(=O)Nc2ccccc21`: the IC50 in experiment [1] (Homo sapiens, 46 h) was 20 nM. On to `Cc1[nH]c(/C=C2\C(=O)Nc3cccc(Cl)c32)c(C)c1CCC(=O)O`, for which, in experiment [1] (Homo sapiens, 46 h), the IC50 is 50.1 nM. For the compound `Cc1cc(C)c(/C=C2\C(=O)Nc3cccc(Cl)c32)[nH]1`, the IC50 in experiment [1] (Homo sapiens, 46 h) is 1 nM. Still for that read-out and setting: then `COc1cc[nH]c1/C=C1\C(=O)Nc2cccc(Cl)c21`, with 0.1 nM. Consider `Cc1cc(C)c(/C=C2\C(=O)Nc3cccc(C(=O)O)c32)[nH]1`, for which the IC50 in experiment [1] (Homo sapiens, 46 h) is 100 nM. Consider `O=C1Nc2ccccc2/C1=C/c1cn(Cc2ccccc2)c2ccccc12`, for which, in experiment [1] (Homo sapiens, 46 h), the IC50 is 3.98 nM. On the same count and under the same terms, then `O=C1Nc2ccccc2/C1=C\c1c(-c2ccccc2)[nH]c2ccccc12`, with 100 nM; and `Cn1cc(/C=C2\C(=O)Nc3ccccc32)c2ccccc21`, with 2 nM. On the same count and under the same terms, as for `COc1ccc(CN2C(=O)/C(=C\c3[nH]c(C)cc3C)c3ccccc32)cc1`, the figure is 31.6 nM; as for `Cc1cc(C(=O)O)[nH]c1/C=C1\C(=O)Nc2ccccc21`, 200 nM. Still for that read-out and setting: then `Cc1cc(C)c(/C=C2\C(=O)Nc3ccc(O)cc32)[nH]1`, with 794 nM; and `Cc1cc(C)c(/C=C2\C(=O)Nc3ccc(F)cc32)[nH]1`, with 100 nM. `O=C1Nc2ccccc2/C1=C\c1ccc(-c2ccccc2)o1`: in experiment [1] (Homo sapiens, 46 h), the IC50 was 3.98 nM. On to `O=C1Nc2ccccc2/C1=C\c1cc(Cl)cc(Cl)c1OCc1ccc2ccccc2n1`, for which the IC50 in experiment [1] (Homo sapiens, 46 h) is 100 nM. Same read-out and setting: as for `O=C1Nc2ccccc2/C1=C\c1ccc(Br)s1`, the figure is 20 nM; as for `O=C1Nc2ccccc2/C1=C\c1cc(Br)cs1`, 6.31 nM; as for `O=C1Nc2ccccc2/C1=C\c1ccc([N+](=O)[O-])s1`, 31.6 nM. In the case of `O=C1Nc2ccccc2/C1=C\c1ccoc1`, the IC50 in experiment [1] (Homo sapiens, 46 h) is 631 nM. Same read-out and setting: as for `COc1cccc(/C=C2/C(=O)Nc3ccccc32)c1`, the figure is 6.31 nM. In the case of `COc1ccc(OC)c(/C=C2/C(=O)Nc3ccc(N)cc32)c1`, the “IL-2 pIC50” value in experiment [1] came to 6.5. `COc1ccc(OC)c(/C=C2/C(=O)Nc3ccc(N)cc32)c1.CS(=O)(=O)O`: in experiment [1], the “IL-2 pIC50” value was found to be 7.2. Regarding `CN1CCN(c2c(/C=C3\C(=O)Nc4ccccc43)c3ccccc3n2C)CC1`, the IC50 in experiment [1] (Homo sapiens, 46 h) was 79.4 nM. In the case of `Cc1cc(C(=O)OCc2ccncc2)[nH]c1/C=C1\C(=O)Nc2ccccc21`, the IC50 in experiment [1] (Homo sapiens, 46 h) was 31.6 nM.

In the case of `Cc1cc(C(=O)OCc2ccccc2)[nH]c1/C=C1\C(=O)Nc2ccccc21`, the IC50 in experiment [1] (Homo sapiens, 46 h) is 20 nM. With `Cc1cc(C)c(/C(C(=O)OCc2ccccc2)=C2\C(=O)Nc3ccccc32)[nH]1`, in experiment [1] (Homo sapiens, 46 h), the IC50 is 20 nM. On the same count and under the same terms, then `COc1ccc(OC)c(/C=C2/C(=O)N(O)c3ccccc32)c1`, with 10 nM. `CC(C)(C)OC(=O)N1C(=O)/C(=C\c2c[nH]c3ccccc23)c2ccccc21`: in experiment [1] (Homo sapiens, 46 h), the IC50 was 1 nM. With `Cc1[nH]c(/C=C2\C(=O)N(O)c3ccccc32)c(C)c1Br`, in experiment [1] (Homo sapiens, 46 h), the IC50 was 1 nM.

With `CON1C(=O)/C(=C\c2[nH]c(C)cc2C)c2ccccc21`, the IC50 in experiment [1] (Homo sapiens, 46 h) was 10 nM.

With `COc1ccc(OC)c(/C=C2\C(=O)N(OC)c3ccccc32)c1`, the IC50 in experiment [1] (Homo sapiens, 46 h) is 20 nM.

As to `COc1cccc(C=C2C(=O)Nc3ccccc32)c1` (racemic) [Compound 153, 3-(3-methoxy-benzylidene)-1,3-dihydro-indol-2-one], the “Inhibition (%) of EAE (area-under-curve of the disease score)” value (from here on “Inhibition (%) of EAE”) in experiment [2] (setting [3]) was found to be 38%. On the same count and under the same terms, as for `O=C1Nc2ccccc2C1=Cc1cc(Cl)ccc1Cl` (racemic) [Compound 193, 3-(2,5-dichloro-benzylidene)-1,3-dihydro-indol-2-one], the figure is 37%; as for `CCOC(=O)c1cc(C)c(/C=C2\C(=O)Nc3ccccc32)[nH]1` [Compound 01, 4-methyl-5-(2-oxo-1,2-dihydro-indol-3-ylidenemethyl)-1H-pyrrole-2-carboxylic acid ethyl ester], 44%; as for `Cc1cc(C(=O)NCCO)[nH]c1/C=C1\C(=O)Nc2ccccc21` [Compound 02, 4-methyl-5-(2-oxo-1,2-dihydro-indol-3-ylidenemethyl)-1H-pyrrole-2-carboxylic acid (2-hydroxy-ethyl)-amide], 41%. The same measure, in the same setting: as for `Cc1cc(CO)[nH]c1/C=C1\C(=O)Nc2ccccc21` [Compound 03, 3-(5-hydroxymethyl-3-methyl-1H-pyrrol-2-ylmethylene)-1,3-dihydro-indol-2-one], the figure is 57%; as for `Cc1[nH]c(/C=C2\C(=O)Nc3ccccc32)c(C)c1Br` [Compound 22, 3-(4-bromo-3,5-dimethyl-1H-pyrrol-2-ylmethylene)-1,3-dihydro-indol-2-one], 78%; as for `O=C(O)Cn1cc(/C=C2\C(=O)Nc3ccccc32)c2ccccc21` [Compound 26, [3-(2-oxo-1,2-dihydro-indol-3-ylidenemethyl)-indol-1-yl]-acetic acid], 34%. `CCCn1cc(/C=C2\C(=O)Nc3ccccc32)c2ccccc21` [Compound 31, 3-(1-propyl-1H-indol-3-ylmethylene)-1,3-dihydro-indol-2-one]: in experiment [2] (setting [3]), the “Inhibition (%) of EAE” value amounted to 60%.

Take `COc1ccc(CN(C)C)cc1/C=C1/C(=O)Nc2ccccc21` [Compound 32, 3-(5-dimethylaminomethyl-2-methoxy-benzylidene)-1,3-dihydro-indol-2-one]: in experiment [2] (Table 7, 50 mg/kg p.o., suspension vehicle), the “Inhibition (%) of EAE” value is given as 40%.

Consider `Cc1cc(C)c(/C=C2\C(=O)N(O)c3ccccc32)[nH]1` [Compound 45, 3-(3,5-dimethyl-1H-pyrrol-2-ylmethylene)-1-hydroxy-1,3-dihydro-indol-2-one], for which the “Inhibition (%) of EAE” value in experiment [2] (setting [3]) was 67%.

In the case of `CC(=O)ON1C(=O)/C(=C\c2[nH]c(C)cc2C)c2ccccc21` [Compound 51, acetic acid 3-(3,5-dimethyl-1H-pyrrol-2-ylmethylene)-2-oxo-2,3-dihydro-indol-1-yl ester], the “Inhibition (%) of EAE” value in experiment [2] (setting [3]) amounted to 48%. For the compound `Cc1[nH]c2ccccc2c1/C=C1/C(=O)Nc2ccccc21` [Compound 75, 3-(2-methyl-1H-indol-3-ylmethylene)-1,3-dihydro-indol-2-one], the “Inhibition (%) of EAE” value in experiment [2] (setting [3]) stood at 63%. With `Cc1ccc(C)c(/C=C2/C(=O)Nc3ccccc32)c1` [drawing 112], in experiment [1] (Homo sapiens, 46 h), the IC50 was 100 nM. As to `COc1ccc(OC)c(/C=C2/C(=O)Nc3ccccc32)c1` [drawing 114], the IC50 in experiment [1] (Homo sapiens, 46 h) was 3.98 nM.

Take `CCCn1cc(/C=C2\C(=O)Nc3ccccc32)c2ccccc21` [drawing 137]: the IC50 in experiment [1] (Homo sapiens, 46 h) is 0.2 nM. Same read-out and setting: as for `CCOC(=O)c1cc(C)c(/C=C2\C(=O)Nc3ccccc32)[nH]1` [drawing 139], the figure is 10 nM; as for `Cc1cc(CO)[nH]c1/C=C1\C(=O)Nc2ccccc21` [drawing 144], 39.8 nM; as for `COc1ccc(OC)c(/C=C2/C(=O)Nc3cc(Br)ccc32)c1` [drawing 164], 1 nM. As to `Cc1cc(C(=O)NCCO)[nH]c1/C=C1\C(=O)Nc2ccccc21` [drawing 176], in experiment [1] (Homo sapiens, 46 h), the IC50 is 31.6 nM. `Cc1[nH]c2ccccc2c1/C=C1/C(=O)Nc2ccccc21` [drawing 197]: the IC50 in experiment [1] (Homo sapiens, 46 h) is 794 nM. On to `Cc1[nH]c(/C=C2\C(=O)Nc3ccccc32)c(C)c1Br` [drawing 211], for which the IC50 in experiment [1] (Homo sapiens, 46 h) is 79.4 nM.

In the case of `Cc1cc(C)c(/C=C2\C(=O)N(O)c3ccccc32)[nH]1` [drawing 224], the IC50 in experiment [1] (Homo sapiens, 46 h) is 10 nM.

As for `O=C(O)Cn1cc(/C=C2\C(=O)Nc3ccccc32)c2ccccc21` [drawing 229], the IC50 in experiment [1] (Homo sapiens, 46 h) is 39.8 nM.

The values are drawn from patent US20070167488A1, “Novel therapeutic use” (Leo Pharma A/S, priority 2003, published 2007).
